Results reported in patent publication US20260232767A1, “INTERLEUKIN-23 RECEPTOR ANTAGONIST PEPTIDES FOR USE IN THE TREATMENT OF PSORIASIS” (Janssen Pharmaceutica NV, priority 2023, published 2026).

Tested on: subjects with moderate-to-severe plaque psoriasis
Test: IGA score, Example 1
Assay type: in vivo, human
Details: Week 16
Experimental: The Investigator's Global Assessment (IGA) documents the investigator's assessment of the participant's psoriasis at a given time point. Overall lesions are graded for induration, erythema, and scaling. The participant's psoriasis is assessed as cleared (0), minimal (1), mild (2), moderate (3), or severe (4).
This was a randomized, double-blind, placebo-controlled, dose-ranging, parallel group, multicenter, interventional study in subjects with moderate-to-severe plaque psoriasis. A target of 240 subjects were enrolled in this study with 40 subjects planned per intervention group.
Clinician-reported outcomes including Psoriasis Area and Severity Index (PASI), Body Surface Area (BSA), Investigator's Global Assessment (IGA), Nail Psoriasis Area and Severity Index (NAPSI), Fingernail Physician's Global Assessment (f-PGA), Static Physician's Global Assessment of Genitalia (s-PGA-G), Physician's Global Assessment of Hands and/or Feet (hf-PGA), and Scalp Specific Investigator Global Assessment (ss-IGA) were obtained at Week 0, 8, and 16. PASI and IGA were also obtained at Weeks 1, 2, 4, and 12, and at Week 20, four weeks after the administration of the tablets has stopped.

[1] = 25 mg BID, peak plasma conc. <Q1, N=2
[2] = 25 mg BID, peak plasma conc. Q1 to <Q2, N=2
[3] = 25 mg BID, peak plasma conc. Q2 to <Q3, N=2
[4] = 25 mg BID, peak plasma conc. ≥Q3, N=2
[5] = 25 mg BID, trough plasma conc <Q1
[6] = 25 mg BID, trough plasma conc Q1 to <Q2
[7] = 25 mg BID, trough plasma conc Q2 to <Q3
[8] = 25 mg BID, trough plasma conc ≥Q3
[9] = 25 mg QD, peak plasma conc. <Q1, N=2
[10] = 25 mg QD, peak plasma conc. Q1 to <Q2, N=2
[11] = 25 mg QD, peak plasma conc. Q2 to <Q3, N=2
[12] = 25 mg QD, peak plasma conc. ≥Q3, N=2
[13] = 25 mg QD, trough plasma conc <Q1
[14] = 25 mg QD, trough plasma conc Q1 to <Q2
[15] = 25 mg QD, trough plasma conc Q2 to <Q3
[16] = 25 mg QD, trough plasma conc ≥Q3
[17] = 50 mg QD, peak plasma conc. <Q1, N=2
[18] = 50 mg QD, peak plasma conc. Q1 to <Q2, N=2
[19] = 50 mg QD, peak plasma conc. Q2 to <Q3, N=2
[20] = 50 mg QD, peak plasma conc. ≥Q3, N=2
[21] = 50 mg QD, trough plasma conc <Q1
[22] = 50 mg QD, trough plasma conc Q1 to <Q2
[23] = 50 mg QD, trough plasma conc Q2 to <Q3
[24] = 50 mg QD, trough plasma conc ≥Q3
[25] = 100 mg BID, peak plasma conc. <Q1, N=2
[26] = 100 mg BID, peak plasma conc. Q1 to <Q2, N=3
[27] = 100 mg BID, peak plasma conc. Q2 to <Q3, N=2
[28] = 100 mg BID, peak plasma conc. ≥Q3, N=3
[29] = 100 mg BID, trough plasma conc <Q1

CC(=O)NCCCC[C@@H]1NC(=O)[C@H](Cc2c[nH]c3c(C)cccc23)NC(=O)[C@H]([C@@H](C)O)NC(=O)[C@H](CC(N)=O)NC(=O)[C@@H](NC(C)=O)C(C)(C)SSC(C)(C)[C@@H](C(=O)N[C@@H](Cc2ccc(OCCN)cc2)C(=O)N[C@@H](Cc2ccc3ccccc3c2)C(=O)NC2(C(=O)N[C@@H](CCC(=O)O)C(=O)N[C@@H](CC(N)=O)C(=O)N[C@@H](Cc3cccnc3)C(=O)N(C)CC(N)=O)CCOCC2)NC1=O [IL-23 receptor antagonist peptide, Ac-[Pen]*-N-T-[W(7-Me)]-[Lys(Ac)]-[Pen]*-Phe[4-(2-aminoethoxy)]-[2-Nal]-[THP]-E-N-[3-Pal]-Sarc-NH2 (*[Pen]-[Pen]* formdisulfidebond)]
IGA 0 or 1 treatment difference vs placebo (25 mg BID): 39.5% (21.7%,
IGA 0 treatment difference vs placebo (25 mg BID): 14.6% (4.0%,
Subjects achieving IGA Score = 0 (25 mg BID): (14.6%)
Subjects achieving IGA Score = 0 or 1 (25 mg BID): (51.2%)
IGA score 0, % (25 mg BID, N=41): (14.6) %
IGA score 0/1, % (25 mg BID, N=41): (51.2) %
IGA Score = 0, n subjects [1]: 0
IGA Score = 0 or 1, n subjects [1]: 0
IGA Score = 0, n subjects [2]: 0
IGA Score = 0 or 1, % subjects [2]: (50.0%)
IGA Score = 0 or 1, n subjects [2]: 1
IGA Score = 0, n subjects [3]: 0
IGA Score = 0 or 1, % subjects [3]: (50.0%)
IGA Score = 0 or 1, n subjects [3]: 1
IGA Score = 0, % subjects [4]: (50.0%)
IGA Score = 0, n subjects [4]: 1
IGA Score = 0 or 1, % subjects [4]: (50.0%)
IGA Score = 0 or 1, n subjects [4]: 1
IGA Score = 0, subjects [5]: 2 (33.3%)
IGA Score = 0 or 1, subjects [5]: 4 (66.7%)
IGA Score = 0, subjects [6]: 1 (16.7%)
IGA Score = 0 or 1, subjects [6]: 1 (16.7%)
IGA Score = 0, subjects [7]: 0
IGA Score = 0 or 1, subjects [7]: 4 (66.7%)
IGA Score = 0, subjects [8]: 2 (33.3%)
IGA Score = 0 or 1, subjects [8]: 100.0%
IGA 0 or 1 treatment difference vs placebo (25 mg QD): 27.9% (10.5%,
IGA 0 treatment difference vs placebo (25 mg QD): 16.3% (5.3%,
Subjects achieving IGA Score = 0 (25 mg QD): (16.3%)
Subjects achieving IGA Score = 0 or 1 (25 mg QD): (39.5%)
IGA score 0, % (25 mg QD, N=43): (16.3) %
IGA score 0/1, % (25 mg QD, N=43): (39.5) %
IGA Score = 0, n subjects [9]: 0
IGA Score = 0 or 1, % subjects [9]: (50.0%)
IGA Score = 0 or 1, n subjects [9]: 1
IGA Score = 0, n subjects [10]: 0
IGA Score = 0 or 1, % subjects [10]: (50.0%)
IGA Score = 0 or 1, n subjects [10]: 1
IGA Score = 0, % subjects [11]: (50.0%)
IGA Score = 0, n subjects [11]: 1
IGA Score = 0 or 1, % subjects [11]: (50.0%)
IGA Score = 0 or 1, n subjects [11]: 1
IGA Score = 0, n subjects [12]: 0
IGA Score = 0 or 1, % subjects [12]: (50.0%)
IGA Score = 0 or 1, n subjects [12]: 1
IGA Score = 0, subjects [13]: 1 (20.0%)
IGA Score = 0 or 1, subjects [13]: 2 (40.0%)
IGA Score = 0, subjects [14]: 2 (33.3%)
IGA Score = 0 or 1, subjects [14]: 3 (50.0%)
IGA Score = 0, subjects [15]: 0
IGA Score = 0 or 1, subjects [15]: 1 (20.0%)
IGA Score = 0, subjects [16]: 1 (16.7%)
IGA Score = 0 or 1, subjects [16]: 4 (66.7%)
IGA 0 or 1 treatment difference vs placebo (50 mg QD): 46.5% (29.1%,
IGA 0 treatment difference vs placebo (50 mg QD): 34.9% (20.8%,
Subjects achieving IGA Score = 0 (50 mg QD): 15 (34.9%)
Subjects achieving IGA Score = 0 or 1 (50 mg QD): 25 (58.1%)
IGA score 0, % (50 mg QD, N=43): 34.9%
IGA score 0/1, % (50 mg QD, N=43): 58.1%
IGA Score = 0, n subjects [17]: 0
IGA Score = 0 or 1, n subjects [17]: 0
IGA Score = 0, % subjects [18]: (100.0%)
IGA Score = 0, n subjects [18]: 2
IGA Score = 0 or 1, % subjects [18]: (100.0%)
IGA Score = 0 or 1, n subjects [18]: 2
IGA Score = 0, n subjects [19]: 0
IGA Score = 0 or 1, % subjects [19]: (100.0%)
IGA Score = 0 or 1, n subjects [19]: 2
IGA Score = 0, n subjects [20]: 0
IGA Score = 0 or 1, % subjects [20]: (100.0%)
IGA Score = 0 or 1, n subjects [20]: 2
IGA Score = 0, subjects [21]: 1 (20.0%)
IGA Score = 0 or 1, subjects [21]: 2 (40.0%)
IGA Score = 0, subjects [22]: 3 (60.0%)
IGA Score = 0 or 1, subjects [22]: 4 (80.0%)
IGA Score = 0, subjects [23]: 2 (40.0%)
IGA Score = 0 or 1, subjects [23]: 2 (40.0%)
IGA Score = 0, subjects [24]: 2 (40.0%)
IGA Score = 0 or 1, subjects [24]: 3 (60.0%)
IGA 0 or 1 treatment difference vs placebo (100 mg BID): 52.8% (36.0%,
IGA 0 treatment difference vs placebo (100 mg BID): 45.3% (30.6%,
Subjects achieving IGA Score = 0 (100 mg BID): (45.2%)
Subjects achieving IGA Score = 0 or 1 (100 mg BID): (64.3%)
IGA score 0, % (100 mg BID, N=42): 45.2%
IGA score 0/1, % (100 mg BID, N=42): 64.3%
IGA Score = 0, % subjects [25]: (50.0%)
IGA Score = 0, n subjects [25]: 1
IGA Score = 0 or 1, % subjects [25]: (100.0%)
IGA Score = 0 or 1, n subjects [25]: 2
IGA Score = 0, % subjects [26]: (66.7%)
IGA Score = 0, n subjects [26]: 2
IGA Score = 0 or 1, % subjects [26]: (66.7%)
IGA Score = 0 or 1, n subjects [26]: 2
IGA Score = 0, % subjects [27]: (50.0%)
IGA Score = 0, n subjects [27]: 1
IGA Score = 0 or 1, % subjects [27]: (50.0%)
IGA Score = 0 or 1, n subjects [27]: 1
IGA Score = 0, % subjects [28]: (66.7%)
IGA Score = 0, n subjects [28]: 2
IGA Score = 0 or 1, % subjects [28]: (100.0%)
IGA Score = 0 or 1, n subjects [28]: 3
IGA Score = 0, subjects [29]: 1 (25.0%)
IGA Score = 0 or 1, subjects [29]: 3 (75.0%)
IGA Score = 0, subjects (100 mg BID, trough plasma conc Q1 to <Q2): 2 (40.0%)
